{"source": "patent US11135320B2", "about": "“Radioligands for pretargeted pet imaging and methods of their therapeutic use” (priority 2015, dated 2021)", "key": {"[1]": {"settings": "pretargeting, 24 h interval; Zeglis 2013; cited from earlier work"}, "[2]": {"experiment": "In vivo stability of ^64Cu-Tz-SarAr (intact fraction in blood)", "design": "species or system athymic nude mice", "experimental": "Healthy athymic nude mice were injected with ^64Cu-Tz-SarAr (300-350 μCi) via intravenous tail vein injection. After 15 min, 1 h, or 4 h, the mice were sacrificed via CO2 asphyxiation, and their blood (500 μL) was collected via cardiac puncture in heparinized 1.7 mL microcentrifuge tubes. These tubes were then centrifuged at 10,000 rpm for 10 minutes to separate plasma from red-blood cells. After 10 minutes, the plasma supernatant was then transferred to a new 1.7 mL microcentrifuge tube and placed on ice. Subsequently, 500 μL of ice-cold CH3CN was added to the plasma to precipitate the proteins, and the tubes were vortexed briefly and centrifuged again for 10 min at 10,000 rpm. After this centrifugation, the supernatant was carefully removed and transferred to another 1.7 mL microcentrifuge tube, in which it was subjected to another round of centrifugation at 10,000 rpm for 10 min. After this final centrifugation, the supernatant was again transferred to a clean 1.7 mL microcentrifuge tube. This solution was then analyzed via radio-TLC methods using reverse-phase C18 TLC plates and a mobile phase of 1:1 CH3CN:water (each with 0.1% TFA). Using this method, any free ^64Cu^2+ will remain at the baseline, while ^64Cu-Tz-SarAr and other metabolites will travel up the TLC plate. The fraction of intact ^64Cu-Tz-SarAr was calculated by dividing the integral of the parent compound peak over the integral of the entire radio-TLC chromatogram. All experiments were performed in triplicate."}, "[3]": {"system": "subcutaneous SW1222 xenografts", "experiment": "Pretargeted PET imaging, control experiments", "assay_type": "in vivo, athymic nude mice", "experimental": "Due to its pharmacokinetic profile, ^64Cu-Tz-SarAr was selected for in vivo pretargeting experiments. To this end, athymic nude mice bearing A33 antigen-expressing SW1222 human colorectal carcinoma tumors were first injected with huA33-TCO (100 μg). After a 24 h interval during which huA33-TCO accumulated at the tumor and cleared from the blood, the mice were injected with ^64Cu-Tz-SarAr (400-450 μCi). The specific activity of the radiotracer was adjusted using cold ^natCu-Tz-SarAr such that the molar ratio of Tz-SarAr:huA33-TCO≈1:1. […] At 1 h post-injection, the activity concentration in the tumor (5.63±0.67% ID/g) was the highest of all tissues surveyed, while the blood (4.2±0.8% ID/g) and kidneys (3.1±0.3% ID/g) were the healthy organs with the highest background activity concentrations. […]\nAll pretargeted PET imaging experiments were performed on an Inveon PET/CT scanner (Siemens Healthcare Global). […] Static scans were recorded at various time points after injection with a minimum of 30 million coincident events (10-30 min total scan time). […] Activity concentrations (percentage of dose per gram of tissue [% ID/g]) and maximum intensity projections were determined by conversion of the counting rates from the reconstructed images. All of the resulting PET images were analyzed using ASIPro VM™ software. […]"}}, "data": [{"smiles": "O=C([O-])CN1CCN(CC(=O)[O-])CC(Cc2ccc(NC(=O)CCCC(=O)NCc3ccc(-c4nncnn4)cc3)cc2)N(CC(=O)[O-])CC1.[64Cu+2]", "note": "(stereo not shown) [^64Cu-Tz-NOTA]", "values": [{"measurement": "Adrenals absorbed dose", "setting": "[1]", "result": 0.0251, "unit": "rad/mCi"}, {"measurement": "Bladder Wall absorbed dose", "setting": "[1]", "result": 0.0262, "unit": "rad/mCi"}, {"measurement": "Brain absorbed dose", "setting": "[1]", "result": 0.0236, "unit": "rad/mCi"}, {"measurement": "Breasts absorbed dose", "setting": "[1]", "result": 0.0209, "unit": "rad/mCi"}, {"measurement": "Effective Dose", "setting": "[1]", "result": 0.046, "unit": "rem/mCi"}, {"measurement": "Gallbladder Wall absorbed dose", "setting": "[1]", "result": 0.0272, "unit": "rad/mCi"}, {"measurement": "Heart Wall absorbed dose", "setting": "[1]", "result": 0.0294, "unit": "rad/mCi"}, {"measurement": "Kidneys absorbed dose", "setting": "[1]", "result": 0.0315, "unit": "rad/mCi"}, {"measurement": "Liver absorbed dose", "setting": "[1]", "result": 0.0311, "unit": "rad/mCi"}, {"measurement": "Lower Lg. Int. Wall absorbed dose", "setting": "[1]", "result": 0.166, "unit": "rad/mCi"}, {"measurement": "Lungs absorbed dose", "setting": "[1]", "result": 0.0289, "unit": "rad/mCi"}, {"measurement": "Muscle absorbed dose", "setting": "[1]", "result": 0.0138, "unit": "rad/mCi"}, {"measurement": "Osteogenic Cells absorbed dose", "setting": "[1]", "result": 0.0852, "unit": "rad/mCi"}, {"measurement": "Ovaries absorbed dose", "setting": "[1]", "result": 0.0299, "unit": "rad/mCi"}, {"measurement": "Pancreas absorbed dose", "setting": "[1]", "result": 0.0258, "unit": "rad/mCi"}, {"measurement": "Red Marrow absorbed dose", "setting": "[1]", "result": 0.0530, "unit": "rad/mCi"}, {"measurement": "Skin absorbed dose", "setting": "[1]", "result": 0.0194, "unit": "rad/mCi"}, {"measurement": "Small Intestine absorbed dose", "setting": "[1]", "result": 0.033, "unit": "rad/mCi"}, {"measurement": "Spleen absorbed dose", "setting": "[1]", "result": 0.0180, "unit": "rad/mCi"}, {"measurement": "Stomach Wall absorbed dose", "setting": "[1]", "result": 0.0267, "unit": "rad/mCi"}, {"measurement": "Testes absorbed dose", "setting": "[1]", "result": 0.0225, "unit": "rad/mCi"}, {"measurement": "Thymus absorbed dose", "setting": "[1]", "result": 0.0227, "unit": "rad/mCi"}, {"measurement": "Thyroid absorbed dose", "setting": "[1]", "result": 0.0228, "unit": "rad/mCi"}, {"measurement": "Total Body absorbed dose", "setting": "[1]", "result": 0.0272, "unit": "rad/mCi"}, {"measurement": "Upper Lg. Int. Wall absorbed dose", "setting": "[1]", "result": 0.114, "unit": "rad/mCi"}, {"measurement": "Uterus absorbed dose", "setting": "[1]", "result": 0.0277, "unit": "rad/mCi"}]}, {"smiles": "NC12CNCCNCC(NCc3ccc(CNC(=O)CCCC(=O)NCc4ccc(-c5nncnn5)cc4)cc3)(CNCCNC1)CNCCNC2.[64Cu+2]", "note": "[^64Cu-Tz-SarAr]", "values": [{"measurement": "% Intact in blood", "setting": "[2]; 15 min post-injection", "result": "96.8±0.8", "unit": "%"}, {"measurement": "% Intact in blood", "setting": "[2]; 1 h post-injection", "result": "82.0±3.3", "unit": "%"}, {"measurement": "% Intact in blood", "setting": "[2]; 4 h post-injection", "result": "29.0±5.9", "unit": "%"}, {"measurement": "uptake by the tumor (control PET imaging)", "setting": "[3]; ^64Cu-Tz-SarAr alone, no antibody", "result": "less than 0.5 % ID/g"}, {"measurement": "uptake by the tumor (control PET imaging)", "setting": "[3]; ^64Cu-Tz-SarAr with unmodified huA33", "result": "less than 0.5 % ID/g"}]}]}
